This note sets out measurements from US20230416232A1, “PYRIMIDINE COMPOUNDS, COMPOSITIONS, AND MEDICINAL APPLICATIONS THEREOF” (Blueprint Medicines Corporation, priority 2020, published 2023).

Holding throughout (format): cell-based
One test concerns A431 cells. Nature of the test: Cellular proliferation (Alamar Blue) assay, A431 cells. The note with it: Homo sapiens, A-431, 72 h, A431 cells; 72 hr; Alamar Blue; read-out: A431 IC50. The procedure, abridged: (§1)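 Compound treatment lasted 72 h at 37 °C across a final 10-0.0005 μM range in 3-fold steps; cell growth was measured with Alamar Blue (3 h). Ba/F3 seeded at 15,000 and A431 at 5000 cells/well.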

For test [1], the target named is EGFR (A767_dupASV) expressing Ba/F3 stable cell line (Homo sapiens, UniProt P00533, DUP767-769, cells depend on it). Put plainly: Cellular proliferation (Alamar Blue) assay, EGFR (A767_dupASV) Ba/F3. The note with it: 72 hr, read-out: A767 IC50. The gist of the method:
as §1

Test [2] concerns the target EGFR (H773insNPH) expressing Ba/F3 stable cell line (Homo sapiens, UniProt P00533, DUP771-773, cells depend on it). Nature of the test: Cellular proliferation (Alamar Blue) assay, EGFR (H773insNPH) Ba/F3. The note with it: 72 hr, read-out: NPH IC50. The method, then:
Cell line details: • 1. EGFR(D770_N771insSVD) expressing Ba/F3 stable cell line • 2. EGFR (A767_dupASV) expressing Ba/F3 stable cell line • 3. A431 cells • 4. EGFR (H773insNPH) expressing Ba/F3 stable cell line • 5. HER2 (A775_G776insYVMA) expressing Ba/F3 stable cell line
• 1. Seed cells at 5000 for A431 and 15,000 cells for Ba/F3 in 100 μL/well in complete media (for A431: DMEM with 10% FBS and for Ba/F3 cells: RPMI with 10% FBS) in 96-well tissue culture plate. Leave outer wells without cells for background measurements. Incubate at 37 degree Celsius in 5% CO2 humidified incubator for 16-18 hours. • 2. Add 0.025 ml of 5X concentration compound dilution or DMSO control. Final compound concentration range is 10-0.0005 μM prepared in 3-fold serial dilutions. Incubate for 72 hr at 37 degree Celsius in 5% CO2 humidified incubator. • 3. Add 0.0125 ml Alamar Blue™ reagent to each well with multi-channel pipette and tap gently on each side of the plate to mix. Incubate for 3 hours at 37 degree Celsius in 5% CO2 humidified incubator. • 4. […] Data analysis was performed using XLfit 5.5.0.5.

The target of test [3] is HER2 (A775_G776insYVMA) expressing Ba/F3 stable cell line (Homo sapiens, UniProt P04626, DUP772-775, cells depend on it). Nature of the test: Cellular proliferation (Alamar Blue) assay, HER2 (A775_G776insYVMA) Ba/F3. The note with it: HER2 (A775_G776insYVMA) Ba/F3 cells; 72 hr; Alamar Blue; read-out: YVMA IC50. The gist of the method:
as §1

The target of test [4] is EGFR(D770_N771insSVD) expressing Ba/F3 stable cell line (Homo sapiens, UniProt P00533, DUP768-770, cells depend on it). Nature of the test: Cellular proliferation (Alamar Blue) assay, EGFR(D770_N771insSVD) Ba/F3. The note with it: 72 hr, read-out: D770 IC50. The gist of the method:
as §1

HER2 (A775_G776insYVMA) expressing Ba/F3 stable cell line, sequence (P04626 with tags, fused parts or gaps DUP772-775): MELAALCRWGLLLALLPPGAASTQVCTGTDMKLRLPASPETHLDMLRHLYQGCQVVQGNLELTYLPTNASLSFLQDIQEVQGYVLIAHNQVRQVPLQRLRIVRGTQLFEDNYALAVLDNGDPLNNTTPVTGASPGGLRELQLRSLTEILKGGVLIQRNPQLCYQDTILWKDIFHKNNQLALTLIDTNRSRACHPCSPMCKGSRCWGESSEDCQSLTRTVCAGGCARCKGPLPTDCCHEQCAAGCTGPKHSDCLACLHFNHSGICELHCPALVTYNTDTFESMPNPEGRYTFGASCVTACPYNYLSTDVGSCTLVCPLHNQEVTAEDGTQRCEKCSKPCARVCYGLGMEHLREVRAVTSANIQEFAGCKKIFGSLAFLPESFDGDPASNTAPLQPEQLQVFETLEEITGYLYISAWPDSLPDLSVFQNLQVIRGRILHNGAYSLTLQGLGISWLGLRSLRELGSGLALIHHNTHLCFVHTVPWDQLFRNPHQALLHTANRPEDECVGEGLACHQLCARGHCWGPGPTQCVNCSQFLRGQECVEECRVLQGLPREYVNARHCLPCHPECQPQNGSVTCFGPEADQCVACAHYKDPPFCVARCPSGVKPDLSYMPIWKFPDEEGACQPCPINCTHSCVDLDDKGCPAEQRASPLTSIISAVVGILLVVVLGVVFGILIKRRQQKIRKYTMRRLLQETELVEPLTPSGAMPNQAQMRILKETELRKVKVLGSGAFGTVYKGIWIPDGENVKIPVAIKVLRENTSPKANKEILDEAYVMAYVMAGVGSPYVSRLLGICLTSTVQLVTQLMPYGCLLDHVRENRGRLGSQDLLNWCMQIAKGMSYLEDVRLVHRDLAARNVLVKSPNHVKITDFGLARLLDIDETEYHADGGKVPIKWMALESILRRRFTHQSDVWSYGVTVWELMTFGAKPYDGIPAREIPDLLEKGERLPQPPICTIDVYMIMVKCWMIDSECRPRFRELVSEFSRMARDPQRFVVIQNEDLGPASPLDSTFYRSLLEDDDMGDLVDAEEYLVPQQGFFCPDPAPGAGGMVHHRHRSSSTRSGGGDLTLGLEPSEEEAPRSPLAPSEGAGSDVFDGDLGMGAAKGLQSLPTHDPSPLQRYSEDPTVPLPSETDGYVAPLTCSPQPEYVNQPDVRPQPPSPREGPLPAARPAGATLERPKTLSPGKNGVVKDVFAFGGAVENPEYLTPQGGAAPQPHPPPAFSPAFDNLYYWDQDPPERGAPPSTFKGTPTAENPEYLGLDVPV
EGFR (A767_dupASV) expressing Ba/F3 stable cell line, sequence (P00533 with tags, fused parts or gaps DUP767-769): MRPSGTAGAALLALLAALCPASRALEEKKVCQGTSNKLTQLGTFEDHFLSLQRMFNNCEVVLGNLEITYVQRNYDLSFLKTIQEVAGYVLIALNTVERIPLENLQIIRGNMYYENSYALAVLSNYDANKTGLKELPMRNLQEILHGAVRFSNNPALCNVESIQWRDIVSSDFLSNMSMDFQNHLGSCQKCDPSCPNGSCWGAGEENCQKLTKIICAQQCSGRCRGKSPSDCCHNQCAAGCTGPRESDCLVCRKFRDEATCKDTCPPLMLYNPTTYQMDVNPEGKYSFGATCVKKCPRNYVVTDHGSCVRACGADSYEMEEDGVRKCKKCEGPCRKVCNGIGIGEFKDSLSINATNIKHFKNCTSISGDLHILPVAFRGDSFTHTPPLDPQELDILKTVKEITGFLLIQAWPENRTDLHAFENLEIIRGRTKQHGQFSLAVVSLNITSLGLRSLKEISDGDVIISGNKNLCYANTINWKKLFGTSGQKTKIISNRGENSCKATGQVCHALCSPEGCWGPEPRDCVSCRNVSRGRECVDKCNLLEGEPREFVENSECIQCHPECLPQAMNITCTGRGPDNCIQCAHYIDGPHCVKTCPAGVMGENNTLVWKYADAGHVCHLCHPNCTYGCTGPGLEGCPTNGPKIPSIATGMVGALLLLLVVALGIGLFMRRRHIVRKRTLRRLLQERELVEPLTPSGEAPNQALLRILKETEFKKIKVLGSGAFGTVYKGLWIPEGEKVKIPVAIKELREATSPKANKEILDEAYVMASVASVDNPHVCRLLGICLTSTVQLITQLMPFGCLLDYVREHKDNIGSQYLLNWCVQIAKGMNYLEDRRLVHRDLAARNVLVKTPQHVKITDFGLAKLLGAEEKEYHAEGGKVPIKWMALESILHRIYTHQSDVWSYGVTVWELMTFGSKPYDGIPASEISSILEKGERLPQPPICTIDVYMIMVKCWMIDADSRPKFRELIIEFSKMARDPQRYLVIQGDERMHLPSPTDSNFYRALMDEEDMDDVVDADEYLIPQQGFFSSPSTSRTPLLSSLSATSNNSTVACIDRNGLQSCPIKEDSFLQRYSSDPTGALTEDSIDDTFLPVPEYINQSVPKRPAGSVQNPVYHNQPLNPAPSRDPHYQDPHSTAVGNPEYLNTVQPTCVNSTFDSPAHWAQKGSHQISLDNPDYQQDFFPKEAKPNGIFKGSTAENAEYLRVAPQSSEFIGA
EGFR (H773insNPH) expressing Ba/F3 stable cell line, sequence (P00533 with tags, fused parts or gaps DUP771-773): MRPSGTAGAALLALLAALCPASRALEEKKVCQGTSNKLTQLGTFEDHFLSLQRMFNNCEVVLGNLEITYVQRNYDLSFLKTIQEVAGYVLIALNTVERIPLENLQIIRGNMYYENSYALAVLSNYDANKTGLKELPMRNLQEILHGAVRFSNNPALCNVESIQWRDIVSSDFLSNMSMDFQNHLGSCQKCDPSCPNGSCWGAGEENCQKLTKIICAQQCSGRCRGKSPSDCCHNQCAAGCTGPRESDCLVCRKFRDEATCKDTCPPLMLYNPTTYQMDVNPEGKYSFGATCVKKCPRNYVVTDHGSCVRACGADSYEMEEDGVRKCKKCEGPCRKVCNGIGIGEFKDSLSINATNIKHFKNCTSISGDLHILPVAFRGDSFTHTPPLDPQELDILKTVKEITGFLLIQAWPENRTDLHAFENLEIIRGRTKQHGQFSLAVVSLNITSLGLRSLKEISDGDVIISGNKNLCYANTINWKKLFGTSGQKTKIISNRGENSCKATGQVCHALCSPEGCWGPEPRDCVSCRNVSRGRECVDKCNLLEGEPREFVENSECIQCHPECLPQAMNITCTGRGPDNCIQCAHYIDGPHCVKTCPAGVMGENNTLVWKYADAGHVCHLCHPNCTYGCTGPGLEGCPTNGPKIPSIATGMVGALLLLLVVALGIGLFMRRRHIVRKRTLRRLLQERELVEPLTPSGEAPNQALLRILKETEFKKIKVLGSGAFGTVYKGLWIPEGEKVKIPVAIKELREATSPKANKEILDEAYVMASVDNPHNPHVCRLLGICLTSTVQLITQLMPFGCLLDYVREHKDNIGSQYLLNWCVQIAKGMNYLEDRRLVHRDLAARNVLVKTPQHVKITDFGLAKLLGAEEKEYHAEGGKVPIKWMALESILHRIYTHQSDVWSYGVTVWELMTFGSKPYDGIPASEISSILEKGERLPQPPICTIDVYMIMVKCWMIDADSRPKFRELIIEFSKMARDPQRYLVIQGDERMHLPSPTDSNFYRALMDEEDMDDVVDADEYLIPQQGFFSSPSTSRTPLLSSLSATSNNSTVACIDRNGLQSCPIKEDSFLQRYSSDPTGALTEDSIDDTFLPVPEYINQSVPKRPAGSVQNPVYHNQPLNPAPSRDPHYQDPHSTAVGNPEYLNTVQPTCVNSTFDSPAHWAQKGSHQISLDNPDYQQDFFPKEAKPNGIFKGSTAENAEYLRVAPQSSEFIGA
EGFR(D770_N771insSVD) expressing Ba/F3 stable cell line, sequence (P00533 with tags, fused parts or gaps DUP768-770): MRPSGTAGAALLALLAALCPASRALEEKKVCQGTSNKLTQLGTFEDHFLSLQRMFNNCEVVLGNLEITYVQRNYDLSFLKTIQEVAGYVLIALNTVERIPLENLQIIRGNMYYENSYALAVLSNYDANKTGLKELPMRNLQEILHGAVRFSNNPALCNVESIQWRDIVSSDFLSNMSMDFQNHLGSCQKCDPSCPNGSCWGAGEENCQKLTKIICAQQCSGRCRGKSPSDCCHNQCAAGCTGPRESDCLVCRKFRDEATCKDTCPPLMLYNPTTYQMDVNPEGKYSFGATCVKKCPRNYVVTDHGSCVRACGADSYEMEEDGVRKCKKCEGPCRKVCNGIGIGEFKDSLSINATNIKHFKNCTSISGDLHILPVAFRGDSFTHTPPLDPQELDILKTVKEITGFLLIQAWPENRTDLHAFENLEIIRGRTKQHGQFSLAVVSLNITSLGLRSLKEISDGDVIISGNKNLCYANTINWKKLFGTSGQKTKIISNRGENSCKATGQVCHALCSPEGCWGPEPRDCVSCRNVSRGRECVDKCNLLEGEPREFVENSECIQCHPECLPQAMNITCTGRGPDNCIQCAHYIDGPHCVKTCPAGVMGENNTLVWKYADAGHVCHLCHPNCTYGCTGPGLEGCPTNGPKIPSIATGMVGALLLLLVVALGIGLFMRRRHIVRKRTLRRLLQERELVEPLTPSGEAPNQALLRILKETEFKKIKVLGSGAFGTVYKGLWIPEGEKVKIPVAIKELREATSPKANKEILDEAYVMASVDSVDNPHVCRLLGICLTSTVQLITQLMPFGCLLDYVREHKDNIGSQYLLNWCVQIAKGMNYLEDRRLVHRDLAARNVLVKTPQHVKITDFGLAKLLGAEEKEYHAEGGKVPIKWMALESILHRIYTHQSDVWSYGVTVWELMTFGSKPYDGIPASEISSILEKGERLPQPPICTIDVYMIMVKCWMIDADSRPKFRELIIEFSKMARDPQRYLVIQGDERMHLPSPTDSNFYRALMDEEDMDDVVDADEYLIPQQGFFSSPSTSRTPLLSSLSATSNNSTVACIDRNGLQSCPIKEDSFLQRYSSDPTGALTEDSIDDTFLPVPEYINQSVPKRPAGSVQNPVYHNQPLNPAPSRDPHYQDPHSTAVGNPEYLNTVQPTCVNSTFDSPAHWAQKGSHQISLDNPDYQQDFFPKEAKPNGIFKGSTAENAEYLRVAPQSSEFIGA

On to `C=CC(=O)Nc1ccc(F)c(Nc2nc(Nc3cnn(C)c3)ncc2-c2ccc(OC(F)(F)F)c(F)c2)c1` [Compound 14, N-(4-fluoro-3-((5-(3-fluoro-4-(trifluoromethoxy)phenyl)-2-((1-methyl-1H-pyrazol-4-yl)amino)pyrimidin-4-yl)amino)phenyl)acrylamide], for which, in the test on A431 cells, the IC50 is 140 nM. Also, the results for the GI50 in test [1], in test [2] and in test [3] were 26 nM, 59 nM and 107 nM, respectively.

Turning to `C=CC(=O)Nc1cccc(Nc2nc(Nc3cnn(C)c3)ncc2-c2ccc(N(C)C)c(F)c2)c1` [Compound 30, N-(3-((5-(4-(dimethylamino)-3-fluorophenyl)-2-((1-methyl-1H-pyrazol-4-yl)amino)pyrimidin-4-yl)amino)phenyl)acrylamide], in the test on A431 cells, the IC50 was found to be 299 nM. For the same molecule, the GI50 in test [2] was 40 nM; in test [4], 35 nM; in test [3], 91 nM.

With `C=CC(=O)Nc1ccc(F)c(Nc2nc(Nc3cnn(C)c3)ncc2-c2cc(F)cc(Cl)c2)c1` [Compound 34, N-(3-((5-(3-chloro-5-fluorophenyl)-2-((1-methyl-1H-pyrazol-4-yl)amino)pyrimidin-4-yl)amino)-4-fluorophenyl)acrylamide], the IC50 in the test on A431 cells was found to be 303 nM. Besides, the GI50 in test [1] was 39 nM; in test [2], 50 nM; in test [3], 84 nM.

For `C=CC(=O)Nc1ccc(F)c(Nc2nc(Nc3cnn(C)c3)ncc2-c2cnc(Cl)c(C)c2)c1` [Compound 48, N-(3-((5-(6-chloro-5-methylpyridin-3-yl)-2-((1-methyl-1H-pyrazol-4-yl)amino)pyrimidin-4-yl)amino)-4-fluorophenyl)acrylamide], in the test on A431 cells, the IC50 was found to be 68 nM. The GI50 in test [2] was 31 nM; in test [3] it was 36 nM.

In the case of `C=CC(=O)Nc1ccc(F)c(Nc2nc(Nc3cnn(CCO)c3)ncc2-c2ccc(Cl)c(Cl)c2)c1` [Compound 51, N-(3-((5-(3,4-dichlorophenyl)-2-((1-(2-hydroxyethyl)-1H-pyrazol-4-yl)amino)pyrimidin-4-yl)amino)-4-fluorophenyl)acrylamide], the IC50 with A431 cells came to 110 nM. Also, the GI50 in test [1] stood at 56 nM; in test [2] it was 79 nM; in test [4], 38 nM.

On to `C=CC(=O)Nc1ccc(F)c(Nc2nc(Nc3cnn(C)c3)ncc2-c2ccc(C3=CCN(C)CC3)c(F)c2)c1` [Compound 55, N-(4-fluoro-3-((5-(3-fluoro-4-(1-methyl-1,2,3,6-tetrahydropyridin-4-yl)phenyl)-2-((1-methyl-1H-pyrazol-4-yl)amino)pyrimidin-4-yl)amino)phenyl)acrylamide], for which, in the test with A431 cells, the IC50 worked out at 2230 nM. In addition, the results for the GI50 in test [1], in test [2] and in test [4] were 800 nM, 3640 nM and 2240 nM, respectively.

On to `C=CC(=O)Nc1cccc(Nc2nc(Nc3cnn(C)c3)ncc2-c2ccc(OC)c(F)c2)c1` [Compound 69, N-(3-((5-(3-fluoro-4-methoxyphenyl)-2-((1-methyl-1H-pyrazol-4-yl)amino)pyrimidin-4-yl)amino)phenyl)acrylamide], for which the IC50 in the test on A431 cells amounted to 73 nM. Besides, the GI50 in test [1] turned out to be 14 nM; in test [2] it was 21 nM; in test [3] it was 27 nM.

For the molecule `C=CC(=O)Nc1ccc(F)c(Nc2nc(Nc3cnn(C)c3)ncc2-c2ccc(Br)c(F)c2)c1` [Compound 87, N-(3-{[5-(4-bromo-3-fluorophenyl)-2-[(1-methyl-1H-pyrazol-4-yl)amino]pyrimidin-4-yl]amino}-4-fluorophenyl) prop-2-enamide], in the test with A431 cells, the IC50 was 18 nM. In addition, the GI50 in test [2] stood at 116 nM; in test [3], 83 nM.

As to `C=CC(=O)Nc1ccc(F)c(Nc2nc(Nc3cnn(C4COC4)c3)ncc2-c2ccc(Br)c(F)c2)c1` [Compound 94, N-(3-((5-(4-bromo-3-fluorophenyl)-2-((1-(oxetan-3-yl)-1H-pyrazol-4-yl)amino)pyrimidin-4-yl)amino)-4-fluorophenyl)acrylamide], the IC50 with A431 cells is 31 nM. In addition, the GI50 was 40 nM in test [1], 35 nM in test [2] and 144 nM in test [3].

On to `Cn1cc(Nc2ncc(-c3ccc(Br)c(F)c3)c(Nc3cc(NC(=O)/C=C/CN4CCC4)ccc3F)n2)cn1` [Compound 166, (E)-4-(azetidin-1-yl)-N-(3-((5-(4-bromo-3-fluorophenyl)-2-((1-methyl-1H-pyrazol-4-yl)amino)pyrimidin-4-yl)amino)-4-fluorophenyl)but-2-enamide], for which the IC50 in the test with A431 cells is 613 nM. In addition, the GI50 is 299 nM in test [1], 75 nM in test [4] and 555 nM in test [3].

Consider `[2H]C([2H])([2H])n1cc(Nc2ncc(-c3cc(F)cc(F)c3)c(Nc3cc(NC(=O)/C=C/CN(C)C)ccc3F)n2)cn1` [Compound 167, (E)-N-(3-((5-(3,5-difluorophenyl)-2-((1-(methyl-d3)-1H-pyrazol-4-yl)amino)pyrimidin-4-yl)amino)-4-fluorophenyl)-4-(dimethylamino)but-2-enamide], for which, in the test on A431 cells, the IC50 is 512 nM. Moreover, the results for the GI50 in test [1], in test [4] and in test [3] were 234 nM, 84 nM and 142 nM, respectively.

As to `C=CC(=O)Nc1ccc(F)c(Nc2nc(Nc3cnn(C)c3)ncc2-c2cc(F)cc(OC(F)F)c2)c1` [Compound 168, N-(3-((5-(3-(difluoromethoxy)-5-fluorophenyl)-2-((1-methyl-1H-pyrazol-4-yl)amino)pyrimidin-4-yl)amino)-4-fluorophenyl)acrylamide], the IC50 in the test on A431 cells is 67 nM. For the same molecule, the GI50 in test [1] was 132 nM; in test [4], 262 nM; in test [3], 574 nM.

Consider `C=CC(=O)Nc1cc(F)c(F)c(Nc2nc(Nc3cnn(C)c3)ncc2-c2cc(F)cc(OC)c2)c1` [Compound 170, N-(3,4-difluoro-5-((5-(3-fluoro-5-methoxyphenyl)-2-((1-methyl-1H-pyrazol-4-yl)amino)pyrimidin-4-yl)amino)phenyl)acrylamide], for which, in the test on A431 cells, the IC50 came to 5250 nM. The GI50 is over 10000 nM in test [1], over 10000 nM in test [4] and over 9040 nM in test [3].

For `CN(C)C/C=C/C(=O)Nc1ccc(F)c(Nc2nc(Nc3cnn(C)c3)ncc2-c2cc(F)c(Br)c(F)c2)c1` [Compound 171, (E)-N-(3-((5-(4-bromo-3,5-difluorophenyl)-2-((1-methyl-1H-pyrazol-4-yl)amino)pyrimidin-4-yl)amino)-4-fluorophenyl)-4-(dimethylamino)but-2-enamide], the IC50 in the test with A431 cells turned out to be 57 nM. Moreover, the GI50 amounted to 99 nM in test [1], 79 nM in test [4] and 113 nM in test [3].

As to `C=CC(=O)Nc1ccc(F)c(Nc2nc(Nc3cnn(C)c3)ncc2-c2cc(F)cc(OC(F)(F)F)c2)c1` [Compound 172, N-(4-fluoro-3-((5-(3-fluoro-5-(trifluoromethoxy)phenyl)-2-((1-methyl-1H-pyrazol-4-yl)amino)pyrimidin-4-yl)amino)phenyl)acrylamide], the IC50 in the test on A431 cells turned out to be 585 nM. Moreover, the results for the GI50 in test [1], in test [4] and in test [3] were 967 nM, 843 nM and 5980 nM, respectively.

On to `C=CC(=O)Nc1cc(Br)cc(Nc2nc(Nc3cnn(C)c3)ncc2-c2cc(F)cc(Cl)c2)c1` [Compound 173, N-(3-bromo-5-((5-(3-chloro-5-fluorophenyl)-2-((1-methyl-1H-pyrazol-4-yl)amino)pyrimidin-4-yl)amino)phenyl)acrylamide], for which the IC50 with A431 cells came to 776 nM. In addition, the results for the GI50 in test [1], in test [4] and in test [3] were 311 nM, 101 nM and 1520 nM, respectively.

As to `C=CC(=O)Nc1cc(Br)cc(Nc2nc(Nc3cnn(C)c3)ncc2-c2cc(F)cc(C(F)F)c2)c1` [Compound 174, N-(3-bromo-5-((5-(3-(difluoromethyl)-5-fluorophenyl)-2-((1-methyl-1H-pyrazol-4-yl)amino)pyrimidin-4-yl)amino)phenyl)acrylamide], in the test on A431 cells, the IC50 came to 358 nM. The values for the GI50 in test [1], in test [4] and in test [3] were 120 nM, 42 nM and 759 nM, respectively.

With `Cn1cc(Nc2ncc(-c3ccc(Br)c(F)c3)c(Nc3cc(NC(=O)/C=C/CF)ccc3F)n2)cn1` [Compound 175, (E)-N-(3-((5-(4-bromo-3-fluorophenyl)-2-((1-methyl-1H-pyrazol-4-yl)amino)pyrimidin-4-yl)amino)-4-fluorophenyl)-4-fluorobut-2-enamide], in the test with A431 cells, the IC50 was 347 nM. The GI50 in test [1] is 224 nM; in test [4], 136 nM; in test [3], 1620 nM.
